≈ marks a conversion by molar mass, not a printed value.
What was measured:
Staphylococcus aureus = experiment: Antibacterial activity against Staphylococcus aureus assessed inhibition of bacterial growth; assay type: functional
Neisseria gonorrhoeae [1] = experiment: Antibacterial activity against resistant Neisseria gonorrhoeae assessed inhibition of bacterial growth; assay type: functional
Neisseria gonorrhoeae [2] = experiment: Antibacterial activity against Neisseria gonorrhoeae clinical isolate assessed inhibition of bacterial growth; assay type: functional
[3] = Aqueous solubility of compound in acidic JP1 solution; assay type: physicochemical
[4] = Aqueous solubility of compound in neutral JP2 solution; assay type: physicochemical
[5] = Metabolic stability in mouse liver microsomes assessed as residual rate; assay type: ADME, Microsome
[6] = Effective permeability of compound by PAMPA assay; assay type: ADME; settings: read-out: Peff
Neisseria gonorrhoeae [7] = experiment: Antibacterial activity against azithromycin resistant Neisseria gonorrhoeae assessed inhibition of bacterial growth; assay type: functional
Neisseria gonorrhoeae [8] = experiment: Antibacterial activity against ceftriaxone intermediate resistant Neisseria gonorrhoeae assessed inhibition of bacterial growth; assay type: functional
[9] = JP1 solution, read-out: solubility
[10] = JP2 solution, read-out: solubility

SMILES | MIC50 (Staphylococcus aureus) [µg/mL] | MIC90 (Staphylococcus aureus) [µg/mL] | MIC50 (Neisseria gonorrhoeae [1]) [µg/mL] | MIC90 (Neisseria gonorrhoeae [1]) [µg/mL] | MIC90 (Neisseria gonorrhoeae [2]) [µg/mL] | solubility [3, 9] [µM] | solubility [4, 10] [µM] | Stability [5] [%] | Papp [6] [×10⁻⁶ cm/s] | MIC (Neisseria gonorrhoeae [7]) [ng/mL] | MIC (Neisseria gonorrhoeae [8]) [µg/mL] | solubility ([3]; buffer) [µM] | solubility ([4]; buffer) [µM]
C#CCONC(=O)O[C@H]1[C@@H](O)[C@H](Oc2ccc3c(O)c(NC(=O)c4ccc(O)c(CC=C(C)C)c4)c(=O)oc3c2C)OC(C)(C)[C@@H]1OC | 0.063 (≈ 0.0945 µM) | 0.063 (≈ 0.0945 µM) | 0.25 (≈ 0.375 µM) | 0.5 (≈ 0.75 µM) | 0.125 (≈ 0.187 µM) | < 1 | 69.3 (≈ 46.2 µg/mL) | 47.2 | 1.14 |  |  |  | 
CO[C@@H]1[C@@H](OC(=O)c2ccc(C)[nH]2)[C@@H](O)[C@H](Oc2ccc3c(O)c(NC(=O)c4ccnc(C)c4)c(=O)oc3c2C)OC1(C)C | 0.5 (≈ 0.823 µM) | 1 (≈ 1.65 µM) | 0.25 (≈ 0.411 µM) | 0.5 (≈ 0.823 µM) |  | 55 (≈ 33.4 µg/mL) | 71.8 (≈ 43.6 µg/mL) | 120 | 0.349 |  |  |  | 
CO[C@@H]1[C@@H](OC(=O)c2ccc(C)[nH]2)[C@@H](O)[C@H](Oc2ccc3c(O)c(NC(=O)CN(C)C)c(=O)oc3c2C)OC1(C)C | 1 (≈ 1.74 µM) | 2 (≈ 3.49 µM) | 2 (≈ 3.49 µM) | 4 (≈ 6.97 µM) |  | > 100 | > 100 |  |  |  |  |  | 
CO[C@@H]1[C@@H](OC(=O)c2ccc(C)[nH]2)[C@@H](O)[C@H](Oc2ccc3c(O)c(NC(=O)CCN(C)C)c(=O)oc3c2C)OC1(C)C | 2 (≈ 3.4 µM) | 4 (≈ 6.81 µM) | 16 (≈ 27.2 µM) | 32 (≈ 54.5 µM) |  | > 100 | > 100 |  |  |  |  |  | 
CO[C@@H]1[C@@H](OC(=O)c2ccc(C)[nH]2)[C@@H](O)[C@H](Oc2ccc3c(O)c(NC(=O)c4cn(C)cn4)c(=O)oc3c2C)OC1(C)C | 0.5 (≈ 0.838 µM) | 0.5 (≈ 0.838 µM) | 0.25 (≈ 0.419 µM) | 0.5 (≈ 0.838 µM) | 0.25 (≈ 0.419 µM) | > 80 | > 80 | 119 | 1.61 |  |  |  | 
C=Cc1cc(C(=O)Nc2c(O)c3ccc(O[C@@H]4OC(C)(C)[C@H](OC)[C@@H](OC(=O)c5ccc(C)[nH]5)[C@H]4O)c(C)c3oc2=O)ccc1N | 0.25 (≈ 0.395 µM) | 0.5 (≈ 0.789 µM) | 0.25 (≈ 0.395 µM) | 0.5 (≈ 0.789 µM) | 0.25 (≈ 0.395 µM) | 1.79 (≈ 1.13 µg/mL) | 65.8 (≈ 41.7 µg/mL) | 104 | 8.06 |  |  |  | 
CO[C@@H]1[C@@H](OC(=O)c2ccc(C)[nH]2)[C@@H](O)[C@H](Oc2ccc3c(O)c(NC(=O)c4ccc(O)c(CC=C(C)C)c4)c(=O)oc3c2C)OC1(C)C | 0.008 (≈ 0.0118 µM) | 0.08 (≈ 0.118 µM) | 0.063 (≈ 0.0931 µM) | 0.125 (≈ 0.185 µM) | 0.063 (≈ 0.0931 µM) | < 1 | 69.2 (≈ 46.8 µg/mL) | 92.7 | 10.3 | 8 (≈ 0.0118 µM) | 0.063 (≈ 0.0931 µM) |  | 
CO[C@@H]1[C@@H](OC(=O)c2ccc(C)[nH]2)[C@@H](O)[C@H](Oc2ccc3c(O)c(NC(=O)Cn4c(-c5ccccn5)nc5ccccc54)c(=O)oc3c2C)OC1(C)C | 0.25 (≈ 0.345 µM) | 0.5 (≈ 0.691 µM) | 0.5 (≈ 0.691 µM) | 0.5 (≈ 0.691 µM) |  |  |  |  |  |  |  |  | 
CO[C@@H]1[C@@H](OC(=O)c2ccc(C)[nH]2)[C@@H](O)[C@H](Oc2ccc3c(O)c(NC(=O)c4ccc(C)c(C)c4)c(=O)oc3c2C)OC1(C)C | 0.016 (≈ 0.0258 µM) | 0.016 (≈ 0.0258 µM) | 0.125 (≈ 0.201 µM) | 0.125 (≈ 0.201 µM) | 0.25 (≈ 0.403 µM) | < 1 | 79.1 (≈ 49.1 µg/mL) | 80.8 | 18 |  |  |  | 
CC[C@H]1OC(=O)[C@H](C)[C@@H](O[C@H]2C[C@@](C)(OC)[C@@H](O)[C@H](C)O2)[C@H](C)[C@@H](O[C@@H]2O[C@H](C)C[C@H](N(C)C)[C@H]2O)[C@](C)(O)C[C@@H](C)CN(C)[C@H](C)[C@@H](O)[C@]1(C)O [AZITHROMYCIN] | > 128 | > 128 | 0.25 (≈ 0.334 µM) | 8 (≈ 10.7 µM) |  |  |  |  |  |  |  |  | 
CO/N=C(\C(=O)N[C@@H]1C(=O)N2C(C(=O)O)=C(CSc3nc(=O)c(O)nn3C)CS[C@H]12)c1csc(N)n1 [CEFTRIAXONE] | 1 (≈ 1.8 µM) | > 128 | 0.008 (≈ 0.0144 µM) | 0.25 (≈ 0.451 µM) |  |  |  |  |  |  |  |  | 
O=c1ccc2ncc(=O)n3c2n1C[C@H]3CN1CCC(NCc2cc3c(cn2)OCCC3)CC1 [GEPOTIDACIN] |  |  |  |  | 0.5 (≈ 1.11 µM) |  |  | 107 | 4.19 |  |  | 63.4 (≈ 28.4 µg/mL) | 67 (≈ 30.1 µg/mL)
CO[C@@H]1[C@@H](OC(N)=O)[C@@H](O)[C@H](Oc2ccc3c(O)c(NC(=O)c4ccc(O)c(CC=C(C)C)c4)c(=O)oc3c2C)OC1(C)C [NOVOBIOCIN] | 0.25 (≈ 0.408 µM) | 0.25 (≈ 0.408 µM) | 1 (≈ 1.63 µM) | 2 (≈ 3.26 µM) |  |  |  |  |  |  |  |  | 
CC[C@H]1OC(=O)[C@@](C)(F)C(=O)[C@H](C)[C@@H](O[C@@H]2O[C@H](C)C[C@H](N(C)C)[C@H]2O)[C@](C)(OC)C[C@@H](C)C(=O)[C@H](C)[C@H]2N(CCCCn3cc(-c4cccc(N)c4)nn3)C(=O)O[C@]12C [SOLITHROMYCIN] |  |  |  |  | 0.25 (≈ 0.296 µM) | > 80 | 49.4 (≈ 41.7 µg/mL) | 104 | 0.653 |  |  |  | 
C[C@@H]1CN2c3c(cc4c(N5C(=O)OC[C@@H]5C)noc4c3F)CC3(C(=O)NC(=O)NC3=O)[C@H]2[C@H](C)O1 [ZOLIFLODACIN] |  |  |  |  | 0.063 (≈ 0.129 µM) | 66.3 (≈ 32.3 µg/mL) | 66 (≈ 32.2 µg/mL) | 94.3 | 0.039 |  |  |  | 
